Results as given in patent EP0804400B1, “HYDROFORMYLATION OF A MULTI-COMPONENT FEED STREAM” (ExxonMobil Research and Engineering Company, priority 1995, dated 1996).
Read-outs that look alike come from different tables or passages of the source. One block for each compound: values may come before it.

Assays:
[1] = cited from earlier work; for Xi x 10^4: mol fraction; for Ci: molarity
[2] = 0.1 MPa partial pressure
Protocol: (§1) In the autoclave experiments the solvent was thoroughly degassed in the autoclave before the gas was charged without stirring. After a short temperature equilibration the pressure and temperature in the autoclave was recorded and then the solvent was stirred until no further pressure drop could be observed. From the known gas volume and pressure drop the amount of dissolved gas was calculated. In the ^1H NMR experiments either the solvent (propanal) or hexamethylbenzene served as an internal standard.

[3] = 0.1 MPa partial pressure, 22 °C; for Xi x 10^4: mol fraction; for Ci: molarity
Protocol: as §1

[4] = solvent Formaldehyde diethyl acetal, 30 °C, ref. g
[5] = solvent Propionaldehyde, 100 °C, ref. k
[6] = mol fraction of gas in liquid phase, solvent Tetraglyme containing 7.8 w.% PPh3, 20 °C
[7] = mol fraction, solvent Tetraglyme containing 7.8 w.% PPh3, 100 °C
[8] = molarity of gas in liquid phase, solvent Tetraglyme containing 7.8 w.% PPh3, 20 °C
[9] = molarity, solvent Tetraglyme containing 7.8 w.% PPh3, 100 °C
[10] = solvent 1-Butyl acetate, 18 °C, ref. l
[11] = solvent 1-Propyl acetate, 18 °C, ref. l
[12] = solvent 2-Ethylhexanol-1, 100 °C, ref. w
[13] = solvent 2-Methylbutanal, 30 °C, ref. e
[14] = solvent 2-Methylbutanal, 100 °C, ref. e
[15] = solvent 2-Propyl acetate, 18 °C, ref. l
[16] = solvent Ethyl acetate, 18 °C, ref. l
[17] = solvent Ethylene glycol dimethyl (ether), 100 °C, ref. t
[18] = solvent Methyl acetate, 18 °C, ref. l
[19] = solvent Methyl butanoate, 18 °C, ref. l
[20] = solvent Methyl propanoate, 18 °C, ref. l
[21] = solvent cell prints 'ether' (wrapped line), 100 °C, ref. v

SMILES: C [Methane]
Xi x 10^4 [1, 4]: 37.40
Xi x 10^4 [1, 5]: 20.90

SMILES: CC [Ethane]
Xi x 10^4 [1, 4]: 214.00
Ci [1, 4]: 201.89 mmol/L

SMILES: [HH] [Hydrogen]
Xi x 10^4 [2, 6]: 5.1
Xi x 10^4 [2, 7]: 7.3
Ci [2, 8]: 2.2 mmol/L
Ci [2, 9]: 3.0 mmol/L
Xi x 10^4 ([3]; solvent d^8-Toluene): 3.5
Xi x 10^4 [1, 10]: 4.29
Xi x 10^4 [1, 11]: 4.15
Xi x 10^4 [1, 12]: 5.85
Xi x 10^4 [1, 13]: 8.55
Xi x 10^4 [1, 14]: 11.45
Xi x 10^4 [1, 15]: 4.83
Xi x 10^4 [1, 16]: 3.46
Xi x 10^4 [1, 17]: 6.20
Xi x 10^4 [1, 4]: 5.37
Xi x 10^4 [1, 18]: 2.51
Xi x 10^4 [1, 19]: 4.67
Xi x 10^4 [1, 20]: 3.77
Xi x 10^4 [1, 5]: 5.95
Xi x 10^4 [1, 21]: 6.58
Xi x 10^4 ([1]; solvent printed 2-Ethylhexanol-1 (second line), 100 °C, ref. v): 5.97
Ci [1, 10]: 3.64 mmol/L
Ci [1, 11]: 3.99 mmol/L
Ci [1, 12]: 3.45 mmol/L
Ci [1, 15]: 4.64 mmol/L
Ci [1, 16]: 3.84 mmol/L
Ci [1, 17]: 5.32 mmol/L
Ci [1, 4]: 5.07 mmol/L
Ci [1, 18]: 3.30 mmol/L
Ci [1, 19]: 4.49 mmol/L
Ci [1, 20]: 4.19 mmol/L
Ci [1, 21]: 3.89 mmol/L

Xi x 10^4 [2, 6]: 1224.0
Xi x 10^4 [2, 7]: 242.0
Xi x 10^4 ([2]; mol fraction, solvent Toluene, 20 °C): 246.7
Xi x 10^4 ([2]; mol fraction, solvent Toluene, 100 °C): 178.0
Ci [2, 8]: 577.0 mmol/L
Ci [2, 9]: 103.0 mmol/L
Ci ([2]; molarity, solvent Toluene, 20 °C): 220.6 mmol/L
Ci ([2]; molarity, solvent Toluene, 100 °C): 147.7 mmol/L
Xi x 10^4 ([3]; solvent Propanal): 402.0
Ci ([3]; solvent Propanal): 557.7 mmol/L
SMILES: C#C [Acetylene]

SMILES: [C-]#[O+] [Carbon monoxide]
Xi x 10^4 [2, 6]: 11.3
Xi x 10^4 [2, 7]: 34.6
Ci [2, 8]: 4.9 mmol/L
Ci [2, 9]: 14.2 mmol/L
Xi x 10^4 [1, 13]: 10.96
Xi x 10^4 [1, 14]: 13.93

SMILES: C=C [Ethylene]
Xi x 10^4 [2, 6]: 134.0
Xi x 10^4 [2, 7]: 76.0
Ci [2, 8]: 60.0 mmol/L
Ci [2, 9]: 32.6 mmol/L
Xi x 10^4 ([3]; solvent Propanal): 115.0
Ci ([3]; solvent Propanal): 159.6 mmol/L
Xi x 10^4 [1, 4]: 185.00
Ci [1, 4]: 174.53 mmol/L
